Test results from patent US12528826B2, “[1,4]oxazepino[2,3-c]quinolinone derivatives as BCL6 inhibitors” (Cancer Research Technology Limited, priority 2019, dated 2026).

What follows are molecules tested against T1, Trx-6×His-BCL6 (human BCL6 BTB domain covering amino-acid sequence 5-129) (Homo sapiens, UniProt P41182) (assay: HTRF assay (BCL6 / BCOR peptide)). Settings: 1 nM Trx-6×His-BCL6, 300 nM BCOR-AF633 peptide, 2 hours incubation at room temperature.
T1 construct: made in house
Assay type: binding
Description: After 2 hours incubation at room temperature the plate was read on a Pherastar FSX (BMG Labtech) plate reader equipped with 337 nm laser excitation filter, a first emission filter at 620 nm and a second emission filter at 665 nm. The % inhibition at each concentration was calculated by normalising FRET ratio to the appropriate high (DMSO with all reagents) and low (DMSO without BCL6) controls.
In the case of `COC1CN(c2ncc(Cl)c(Nc3ccc4c(c3)c3c(c(=O)n4C)OCC(F)(F)[C@H](C4CC4)N3)n2)C1` [Example 11w, (S)-10-((5-chloro-2-(3-methoxyazetidin-1-yl)pyrimidin-4-yl)amino)-2-cyclopropyl-3,3-difluoro-7-methyl-1,2,3,4-tetrahydro-[1,4]oxazepino[2,3-c]quinolin-6(7H)-one], the “HTRF avg pIC50” value is reported as 8.43.
“(S)-10-((5-chloro-2-((3R,5R)-3-fluoro-5-hydroxypiperidin-1-yl)pyrimidin-4-yl)amino)-2-cyclopropyl-3,3-difluoro-7-methyl-1,2,3,4-tetrahydro-[1,4]oxazepino[2,3-c]quinolin-6(7H)-one:(S)-10-((5-chloro-2-((3S,5S)-3-fluoro-5-hydroxypiperidin-1-yl)pyrimidin-4-yl)amino)-2-cyclopropyl-3,3-difluoro-7-methyl-1,2,3,4-tetrahydro-[1,4]oxazepino[2,3-c]quinolin-6(7H)-one(1:1) [Example 11g]” was tested, and the “HTRF avg pIC50” value was 8.28.

Same assay, conditions: 1 nM Trx-6×His-BCL6, 300 nM BCOR-AF633 peptide, 2 hours incubation at room temperature; read-out: HTRF avg pIC50 (converted)
Molecule `CC1CCC(CO)N(c2ncc(Cl)c(Nc3ccc4c(c3)c3c(c(=O)n4C)OCC(F)(F)[C@H](C4CC4)N3)n2)C1` (stereo partly drawn) [Example 12x10, (2S)-10-((5-chloro-2-(2-(hydroxymethyl)-5-methylpiperidin-1-yl)pyrimidin-4-yl)amino)-2-cyclopropyl-3,3-difluoro-7-methyl-1,2,3,4-tetrahydro-[1,4]oxazepino[2,3-c]quinolin-6(7H)-one] has an IC50 of 11.7 nM.
`CC(=O)N(C)[C@@H]1CN(c2ncc(Cl)c(Nc3ccc4c(c3)c3c(c(=O)n4C)OCC(F)(F)[C@H](C4CC4)N3)n2)CCC1(F)F` [Example 9m, N-((R)-1-(5-chloro-4-(((S)-2-cyclopropyl-3,3-difluoro-7-methyl-6-oxo-1,2,3,4,6,7-hexahydro-[1,4]oxazepino[2,3-c]quinolin-10-yl)amino)pyrimidin-2-yl)-4,4-difluoropiperidin-3-yl)-N-methylacetamide] gave an IC50 of 2.51 nM.
`C[C@H]1C[C@@H](OCCN(C)C)CN(c2ncc(Cl)c(Nc3ccc4c(c3)c3c(c(=O)n4C)OCC(F)(F)[C@H](C4CC4)N3)n2)C1` [Example 12x28, (S)-10-((5-chloro-2-((3R,5S)-3-(2-(dimethylamino)ethoxy)-5-methylpiperidin-1-yl)pyrimidin-4-yl)amino)-2-cyclopropyl-3,3-difluoro-7-methyl-1,2,3,4-tetrahydro-[1,4]oxazepino[2,3-c]quinolin-6(7H)-one] gave an IC50 of 3.16 nM.
Work on `Cn1c(=O)c2c(c3cc(Nc4nc(N5CCC[C@H](CO)C5)ncc4Cl)ccc31)N[C@@H](C1CC1)C(F)(F)CO2` [Example 9q, (S)-10-((5-chloro-2-((S)-3-(hydroxymethyl)piperidin-1-yl)pyrimidin-4-yl)amino)-2-cyclopropyl-3,3-difluoro-7-methyl-1,2,3,4-tetrahydro-[1,4]oxazepino[2,3-c]quinolin-6(7H)-one] yielded an IC50 of 4.27 nM.
For `Cn1c(=O)c2c(c3cc(Nc4nc(N5CCC(F)(F)CC5)ncc4F)ccc31)N[C@@H](C1CC1)C(F)(F)CO2` [Example 2b, (S)-2-cyclopropyl-10-((2-(4,4-difluoropiperidin-1-yl)-5-fluoropyrimidin-4-yl)amino)-3,3-difluoro-7-methyl-1,2,3,4-tetrahydro-[1,4]oxazepino[2,3-c]quinolin-6(7H)-one], the IC50 was 22.4 nM.
Molecule `C[C@H]1C[C@@H](CO)CN(c2ncc(Cl)c(Nc3ccc4c(c3)c3c(c(=O)n4C)OCC(F)(F)[C@H](C4CC4)N3)n2)C1` (racemic) [Example 9d, (S)-10-((5-chloro-2-((3R,5S)-3-(hydroxymethyl)-5-methylpiperidin-1-yl)pyrimidin-4-yl)amino)-2-cyclopropyl-3,3-difluoro-7-methyl-1,2,3,4-tetrahydro-[1,4]oxazepino[2,3-c]quinolin-6(7H)-one; (S)-10-((5-chloro-2-((3S,5R)-3-(hydroxymethyl)-5-methylpiperidin-1-yl)pyrimidin-4-yl)amino)-2-cyclopropyl-3,3-difluoro-7-methyl-1,2,3,4-tetrahydro-[1,4]oxazepino[2,3-c]quinolin-6(7H)-one] has an IC50 of 4.17 nM.
`CC1CC(CC(=O)N2CC(F)(F)C2)CN(c2ncc(Cl)c(Nc3ccc4c(c3)c3c(c(=O)n4C)OCC(F)(F)[C@H](C4CC4)N3)n2)C1` (single isomer, unassigned) [Example 12x17b] gave an IC50 of 13.2 nM.
For `CN(CC(C)(C)O)c1ncc(Cl)c(Nc2ccc3c(c2)c2c(c(=O)n3C)OCC(F)(F)[C@H](C3CC3)N2)n1` [Example 9u, (S)-10-((5-chloro-2-((2-hydroxy-2-methylpropyl)(methyl)amino)pyrimidin-4-yl)amino)-2-cyclopropyl-3,3-difluoro-7-methyl-1,2,3,4-tetrahydro-[1,4]oxazepino[2,3-c]quinolin-6(7H)-one], the IC50 was 4.17 nM.
In the case of `Cn1c(=O)c2c(c3cc(Nc4nc(N5CCNC(C(F)F)C5)ncc4Cl)ccc31)N[C@@H](C1CC1)C(F)(F)CO2` (stereo partly drawn) [Example 12x26, (2S)-10-((5-chloro-2-(3-(difluoromethyl)piperazin-1-yl)pyrimidin-4-yl)amino)-2-cyclopropyl-3,3-difluoro-7-methyl-1,2,3,4-tetrahydro-[1,4]oxazepino[2,3-c]quinolin-6(7H)-one], the IC50 is reported as 1.91 nM.
For `Cn1c(=O)c2c(c3cc(Nc4nc(N5CC(CF)C5)ncc4Cl)ccc31)N[C@@H](C1CC1)C(F)(F)CO2` [Example 12x35, (S)-10-((5-chloro-2-(3-(fluoromethyl)azetidin-1-yl)pyrimidin-4-yl)amino)-2-cyclopropyl-3,3-difluoro-7-methyl-1,2,3,4-tetrahydro-[1,4]oxazepino[2,3-c]quinolin-6(7H)-one], the IC50 was 5.37 nM.
`CC(=O)N1CC2CCC(C1)N2c1ncc(Cl)c(Nc2ccc3c(c2)c2c(c(=O)n3C)OCC(F)(F)[C@H](C3CC3)N2)n1` (single isomer, unassigned) [Example 7a] showed an IC50 of 0.776 nM.
`Cn1c(=O)c2c(c3cc(Nc4nc(N5CCC(F)(F)C(C(=O)N6CCC6)C5)ncc4Cl)ccc31)N[C@@H](C1CC1)C(F)(F)CO2` (mixture of isomers) [Example 12x18, (2S)-10-((2-(3-(azetidine-1-carbonyl)-4,4-difluoropiperidin-1-yl)-5-chloropyrimidin-4-yl)amino)-2-cyclopropyl-3,3-difluoro-7-methyl-1,2,3,4-tetrahydro-[1,4]oxazepino[2,3-c]quinolin-6(7H)-one] was tested, and the IC50 was 5.5 nM.
`Cn1c(=O)c2c(c3cc(Nc4nc(N5CCCC(F)C5)ncc4Cl)ccc31)N[C@@H](C1CC1)C(F)(F)CO2` (stereo partly drawn) [Example 12x40, (2S)-10-((5-chloro-2-(3-fluoropiperidin-1-yl)pyrimidin-4-yl)amino)-2-cyclopropyl-3,3-difluoro-7-methyl-1,2,3,4-tetrahydro-[1,4]oxazepino[2,3-c]quinolin-6(7H)-one] gave an IC50 of 10.7 nM.
For `COC1(C)CN(c2ncc(Cl)c(Nc3ccc4c(c3)c3c(c(=O)n4C)OCC(F)(F)[C@H](C4CC4)N3)n2)C1` [Example 11x, (S)-10-((5-chloro-2-(3-methoxy-3-methylazetidin-1-yl)pyrimidin-4-yl)amino)-2-cyclopropyl-3,3-difluoro-7-methyl-1,2,3,4-tetrahydro-[1,4]oxazepino[2,3-c]quinolin-6(7H)-one], the IC50 was 3.55 nM.
Molecule `CN1CCCN(c2ncc(Cl)c(Nc3ccc4c(c3)c3c(c(=O)n4C)OCC(F)(F)[C@H](C4CC4)N3)n2)CC1` [Example 11a, (2S)-10-[[5-chloro-2-(4-methyl-1,4-diazepan-1-yl)pyrimidin-4-yl]amino]-2-cyclopropyl-3,3-difluoro-7-methyl-2,4-dihydro-1H-[1,4]oxazepino[2,3-c]quinolin-6-one] has an IC50 of 2.75 nM.
Work on `CC1CCN(c2ncc(Cl)c(Nc3ccc4c(c3)c3c(c(=O)n4C)OCC(F)(F)[C@H](C4CC4)N3)n2)C1CO` (stereo partly drawn) [Example 12x49, (2S)-10-((5-chloro-2-(2-(hydroxymethyl)-3-methylpyrrolidin-1-yl)pyrimidin-4-yl)amino)-2-cyclopropyl-3,3-difluoro-7-methyl-1,2,3,4-tetrahydro-[1,4]oxazepino[2,3-c]quinolin-6(7H)-one] yielded an IC50 of 6.31 nM.
For `Cn1c(=O)c2c(c3cc(Nc4nc(N5CCC(F)(F)C(O)C5)ncc4Cl)ccc31)N[C@@H](C1CC1)C(F)(F)CO2` (mixture of isomers) [Example 9e, (S)-10-((5-chloro-2-((R)-4,4-difluoro-3-hydroxypiperidin-1-yl)pyrimidin-4-yl)amino)-2-cyclopropyl-3,3-difluoro-7-methyl-1,2,3,4-tetrahydro-[1,4]oxazepino[2,3-c]quinolin-6(7H)-one; (S)-10-((5-chloro-2-((S)-4,4-difluoro-3-hydroxypiperidin-1-yl)pyrimidin-4-yl)amino)-2-cyclopropyl-3,3-difluoro-7-methyl-1,2,3,4-tetrahydro-[1,4]oxazepino[2,3-c]quinolin-6(7H)-one], the IC50 was 3.72 nM.
`CN(C)[C@H]1CCCN(c2ncc(Cl)c(Nc3ccc4c(c3)c3c(c(=O)n4C)OCC(F)(F)[C@H](C4CC4)N3)n2)C1` [Example 9h, (S)-10-((5-chloro-2-((S)-3-(dimethylamino)piperidin-1-yl)pyrimidin-4-yl)amino)-2-cyclopropyl-3,3-difluoro-7-methyl-1,2,3,4-tetrahydro-[1,4]oxazepino[2,3-c]quinolin-6(7H)-one] was tested, and the IC50 was 3.39 nM.
`Cn1c(=O)c2c(c3cc(Nc4nc(N5CCC5)ncc4Cl)ccc31)N[C@@H](C1CC1)C(F)(F)CO2` [Example 11v, (S)-10-((2-(azetidin-1-yl)-5-chloropyrimidin-4-yl)amino)-2-cyclopropyl-3,3-difluoro-7-methyl-1,2,3,4-tetrahydro-[1,4]oxazepino[2,3-c]quinolin-6(7H)-one] showed an IC50 of 5.37 nM.
